Patent publication US8895504B2, “Amylin derivatives” (priority 2008, dated 2014)
*1 amine or outer side, *2 acyl side, *3 side chain or, on linkers, in order; H or OH if unused. Where a SMILES comes first, the peptide text is derived from it. Bridges are numbered along the chain shown (N, C = ends). The star is where a group is joined. C20 diacid = O=C(O)CCCCCCCCCCCCCCCCCCC(=O)*; C18 diacid = O=C(O)CCCCCCCCCCCCCCCCC(=O)*; γGlu = O=C(O)[C@H](CCC(=O)[*:2])N[*:1]

Legend:
[1] = Assay (V) PK - determination of T½ in mini-pig; format: in vivo; settings: minipig, sc, terminal plasma half-life, subcutaneous, approx 2 nmol/kg, male Göttingen mini-pigs
Outline: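 Male Göttingen mini-pigs (5–12 months, 7–35 kg) got a single s.c. neck injection of approx 2 nmol/kg; plasma sampled via central venous catheter predose to 240 h (some to 288 h). Amylin measured by sandwich ELISA; T½ = ln 2/λz from non-compartmental analysis of individual profiles.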

[2] = Assay (VI) PK - determination of T½ in rat; format: in vivo; settings: sc, terminal plasma half-life, subcutaneous, approx 20 nmol/kg, male Sprague Dawley rats
Method: Assay (VI) PK—Determination OF T½ in Rat
T½ is the terminal half-life=ln 2/λz of a compound in plasma. λz is the first order rate constant associated with the terminal (log-linear) portion of the plasma concentration-time curve and is estimated by linear regression of time vs. log concentration.
T½ values of the amylin analogues of the invention is determined by pharmacokinetic studies in Sprague Dawley male rats, from Taconic Europe and the principles of laboratory animal care are followed.
An acclimatization period of approximately 7 days was allowed before the animals entered the study. At start of the acclimatization period the rats were in the weight range of 300-400 g. The rats had permanent catheters inserted in a. carotis which were used for blood sampling.
The studies were conducted in an animal room which was illuminated to give a cycle of approx 12 hours light and 12 hours darkness. The animals were housed individually due to the catheters and had food and water ad lib. The animals were weighed on the days of dosing.
In the present studies the test substances were administered subcutaneously in approx 20 nmol/kg dose. The animals received a single subcutaneous injection to the neck using a 25 G needle with syringe. Each test substance was given to typically three but in some cases two or four animals.
A full plasma concentration-time profile, employing 8-10 sampling points, was obtained from each animal. In example blood samples were collected according to the following schedule:
After subcutaneous administration:
Predose (0), 0.5, 1, 1.5, 2, 4, 6, 12, 24, 48 and 72 hours after injection. At each sampling time, 0.08 to 0.10 ml of blood was drawn from each animal. The blood samples were taken via the catheter.
The blood samples were collected into EDTA test tubes. Blood samples were kept on ice for max 20 min. before centrifugation. Plasma was separated using centrifugation (i.e. at 4° C., 10 min., 1500 G) and was immediately transferred to Micronic tubes or PCR plates. Approximately 40 μl plasma was transferred and was stored at −20° C. until assayed. The plasma samples were assayed for the content of amylin using an ELISA assay.
The plasma concentration-time profiles were analysed by a non-compartmental pharmacokinetic analysis (NCA) using WinNonlin Professional 5.0 (Pharsight Inc., Mountain View, Calif., USA). NCA was performed using the individual plasma concentration-time profiles from each animal. T½ is the terminal half-life=ln 2/λz and was determined from λz, the first order rate constant associated with the terminal (log-linear) portion of the curve, estimated by linear regression of time vs. log concentration.
ELISA Plasma Assay for Amylin Quantification
The human amylin ELISA is a monoclonal antibody-based sandwich immunoassay for determining amylin levels in human plasma. The capture antibody recognizes human amylin, amylin acid (deamidated amylin), a 1-20 fragment of amylin, but not reduced amylin. The detection antibody binds to reduced or unreduced human amylin but not amylin acid and is complexed with streptavidin-alkaline phosphatase. The substrate, 4-methylumbelliferyl phosphate, is applied to the completed sandwich and the fluorescent signal, monitored at 355 nm/460 nm, is proportional to the amount of amylin present in the sample.

[3] = biological target: T1, Amylin 3(a) receptor (human calcitonin receptor (CTa) and RAMP-3) (Homo sapiens, UniProt O60896+P30988); assay: Luciferase assay (III), BHK Amylin 3(a)//CRE-luc cells; format: cell-based; settings: BHK cells with Amylin 3(a) receptor and CRE luciferase reporter, 4 hours incubation; read-out: Potency Luciferase
T1 construct: expressed in transfected cells; host or cells: BHK570 cells, stably transfected with a CRE-luciferase reporter
T1 sequence (O60896 24-148): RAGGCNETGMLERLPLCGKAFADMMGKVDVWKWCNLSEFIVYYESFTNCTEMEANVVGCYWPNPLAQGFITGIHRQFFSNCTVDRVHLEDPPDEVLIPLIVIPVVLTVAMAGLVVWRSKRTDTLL
T1 sequence (P30988 25-474): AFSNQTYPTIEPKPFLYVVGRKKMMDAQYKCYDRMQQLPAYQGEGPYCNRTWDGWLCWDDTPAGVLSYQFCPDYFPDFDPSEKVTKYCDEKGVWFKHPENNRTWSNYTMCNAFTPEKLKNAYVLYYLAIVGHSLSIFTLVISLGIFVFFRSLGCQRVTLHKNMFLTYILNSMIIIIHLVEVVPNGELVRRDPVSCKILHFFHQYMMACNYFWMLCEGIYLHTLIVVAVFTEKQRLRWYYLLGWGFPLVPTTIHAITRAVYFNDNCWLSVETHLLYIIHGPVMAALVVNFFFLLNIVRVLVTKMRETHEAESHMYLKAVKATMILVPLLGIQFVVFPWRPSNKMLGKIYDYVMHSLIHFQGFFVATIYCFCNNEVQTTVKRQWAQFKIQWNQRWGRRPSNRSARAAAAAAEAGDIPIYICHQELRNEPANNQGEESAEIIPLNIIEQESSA
Outline: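 BHK570 cells stably expressing CTa, RAMP-3 and a CRE-luciferase reporter, seeded at about 20,000 cells/well and grown overnight. Cells were exposed to standard or sample for 4 h at 37° C in phenol red-free DMEM with 10% FBS and 10 mM Hepes, pH 7,4. Luminescence was read after 30 min LucLite at room temperature.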

[4] = system: food intake; assay: Pharmacological Assay (I) - efficacy testing on appetite, ad libitum fed rat model; format: in vivo, Sprague Dawley (SD) rats; settings: 30 nmol/kg vs vehicle, ad libitum fed rats, n=5-7, 0-48 hours
From the text: Assays Pharmacological Assay (I)—Experimental Protocol for Efficacy Testing on Appetite with an Amylin Derivative, Using an Ad Libitum Fed Rat Model. Sprague Dawley (SD) rats from Taconic Europe, Denmark are used for the experiments. The rats have a body weight 200-250 g at the start of experiment. The rats arrive at least 10-14 days before start of experiment to allow acclimatization to experimental settings. During this period the animals are handled at least 2 times. After arrival rats are housed individually for one week in a reversed light/dark phase (meaning that lights are off during daytime and on during nighttime) for two weeks. Since rats are normally active and eat their major part of their daily food intake during the dark period, rats are dosed in the morning right before lights are turned off. This set-up results in the lowest data variation and highest test sensitivity. The experiment is conducted in the rats' home cages and rats have free access to food and water throughout the acclimatization period and the experiment period. Each dose of derivative is tested in a group of 5-8 rats. A vehicle group of 6-8 rats is included in each set of testing. Rats are dosed once according to body weight with a 0.01-3 mg/kg solution administered intraperitoneally (ip), orally (po) or subcutaneously (sc). The time of dosing is recorded for each group. After dosing, the rats are returned to their home cages, where they then have access to food and water. The food consumption is recorded individually continuously by on-line registration or manually every hour for 7 hours, and then after 24 h and sometimes 48 h. At the end of the experimental session, the animals are euthanized. The individual data are recorded in Microsoft excel sheets. Outliers are excluded after applying the Grubbs statistical evaluation test for outliers, and the result is presented graphically using the GraphPad Prism program.

half-life ([1]; in vivo)	half-life ([2]; in vivo)	EC50 [3]	half-life [1]	half-life [2]	Compound	food intake over a period of 48 hours [4]
70 h	16 h	0.1 nM	–	–	CC[C@H](C)[C@H](NC(=O)[C@@H]1CCCN1C(=O)CNC(=O)[C@H](Cc1ccccc1)NC(=O)[C@H](CC(N)=O)NC(=O)[C@H](CC(N)=O)NC(=O)[C@H](CO)NC(=O)[C@H](CO)NC(=O)[C@H](Cc1c[nH]cn1)NC(=O)[C@H](Cc1c[nH]cn1)NC(=O)[C@H](CC(C)C)NC(=O)[C@H](Cc1ccccc1)NC(=O)[C@H](CC(N)=O)NC(=O)[C@H](C)NC(=O)[C@H](CC(C)C)NC(=O)[C@H](CCCNC(=N)N)NC(=O)[C@H](CCC(N)=O)NC(=O)[C@@H](NC(=O)[C@H](C)NC(=O)[C@@H]1CSSC[C@H](NC(=O)[C@H](CCCCN)NC(=O)CC[C@H](NC(=O)CCCCCCCCCCCCCCCCCCC(=O)O)C(=O)O)C(=O)N[C@@H](CC(N)=O)C(=O)N[C@@H]([C@@H](C)O)C(=O)N[C@@H](C)C(=O)N[C@@H]([C@@H](C)O)C(=O)N1)[C@@H](C)O)C(=O)N[C@@H](CC(C)C)C(=O)N1CCC[C@H]1C(=O)N1CCC[C@H]1C(=O)N[C@H](C(=O)N[C@@H](CC(N)=O)C(=O)N[C@H](C(=O)NCC(=O)N[C@@H](CO)C(=O)N[C@@H](CC(N)=O)C(=O)N[C@H](C(=O)N[C@@H](Cc1ccc(O)cc1)C(N)=O)[C@@H](C)O)C(C)C)[C@@H](C)O [Example 5, N-alpha-[(S)-4-Carboxy-4-(19-carboxynonadecanoylamino)butyryl]-[His17]-pramlintide] ({C20 diacid-γGlu}-KCNTATCATQRLANFLHHSSNNFGPILPPTNVGSNTY-NH2; disulfide 2-7)	–
–	–	0.08 nM	66 h	11 h	CC[C@H](C)[C@H](NC(=O)[C@@H]1CCCN1C(=O)CNC(=O)[C@H](Cc1ccccc1)NC(=O)[C@H](CC(N)=O)NC(=O)[C@H](CC(N)=O)NC(=O)[C@H](CO)NC(=O)[C@H](CO)NC(=O)[C@H](Cc1c[nH]cn1)NC(=O)[C@H](Cc1c[nH]cn1)NC(=O)[C@H](CC(C)C)NC(=O)[C@H](Cc1ccccc1)NC(=O)[C@H](CC(N)=O)NC(=O)[C@H](C)NC(=O)[C@H](CC(C)C)NC(=O)[C@H](CCCNC(=N)N)NC(=O)[C@H](CCC(N)=O)NC(=O)[C@@H](NC(=O)[C@H](C)NC(=O)[C@@H]1CSSC[C@H](NC(=O)CC[C@H](NC(=O)CCCCCCCCCCCCCCCCC(=O)O)C(=O)O)C(=O)N[C@@H](CC(N)=O)C(=O)N[C@@H]([C@@H](C)O)C(=O)N[C@@H](C)C(=O)N[C@@H]([C@@H](C)O)C(=O)N1)[C@@H](C)O)C(=O)N[C@@H](CC(C)C)C(=O)N1CCC[C@H]1C(=O)N1CCC[C@H]1C(=O)N[C@H](C(=O)N[C@@H](CC(N)=O)C(=O)N[C@H](C(=O)NCC(=O)N[C@@H](CO)C(=O)N[C@@H](CC(N)=O)C(=O)N[C@H](C(=O)N[C@@H](Cc1ccc(O)cc1)C(N)=O)[C@@H](C)O)C(C)C)[C@@H](C)O [Example 10, N-alpha-[(S)-4-Carboxy-4-(17-carboxyheptadecanoylamino)butyryl]-[His17]-pramlintide (2-37)] ({C18 diacid-γGlu}-CNTATCATQRLANFLHHSSNNFGPILPPTNVGSNTY-NH2; disulfide 1-6)	–
–	–	0.1 nM	64 h	–	CC[C@H](C)[C@H](NC(=O)[C@@H]1CCCN1C(=O)CNC(=O)[C@H](Cc1ccccc1)NC(=O)[C@H](CC(N)=O)NC(=O)[C@H](CC(N)=O)NC(=O)[C@H](CO)NC(=O)[C@H](CO)NC(=O)[C@H](Cc1c[nH]cn1)NC(=O)[C@H](Cc1c[nH]cn1)NC(=O)[C@H](CC(C)C)NC(=O)[C@H](Cc1ccccc1)NC(=O)[C@H](CC(N)=O)NC(=O)[C@H](C)NC(=O)[C@H](CC(C)C)NC(=O)[C@H](CCCNC(=N)N)NC(=O)[C@H](CCC(N)=O)NC(=O)[C@@H](NC(=O)[C@H](C)NC(=O)[C@@H]1CSSC[C@H](NC(=O)[C@H](Cc2c[nH]cn2)NC(=O)[C@H](Cc2c[nH]cn2)NC(=O)CC[C@H](NC(=O)CCCCCCCCCCCCCCCCCCC(=O)O)C(=O)O)C(=O)N[C@@H](CC(N)=O)C(=O)N[C@@H]([C@@H](C)O)C(=O)N[C@@H](C)C(=O)N[C@@H]([C@@H](C)O)C(=O)N1)[C@@H](C)O)C(=O)N[C@@H](CC(C)C)C(=O)N1CCC[C@H]1C(=O)N1CCC[C@H]1C(=O)N[C@H](C(=O)N[C@@H](CC(N)=O)C(=O)N[C@H](C(=O)NCC(=O)N[C@@H](CO)C(=O)N[C@@H](CC(N)=O)C(=O)N[C@H](C(=O)N[C@@H](Cc1ccc(O)cc1)C(N)=O)[C@@H](C)O)C(C)C)[C@@H](C)O [Example 27, N-alpha-[(S)-4-Carboxy-4-(19-carboxynonadecanoylamino)butyryl]-His-[His1,His17]-pramlintide] ({C20 diacid-γGlu}-HHCNTATCATQRLANFLHHSSNNFGPILPPTNVGSNTY-NH2; disulfide 3-8)	effectively reducing food intake
–	–	0.02 nM	41 h	–	CC[C@H](C)[C@H](NC(=O)[C@@H]1CCCN1C(=O)CNC(=O)[C@H](Cc1ccccc1)NC(=O)[C@H](CC(N)=O)NC(=O)[C@H](CC(N)=O)NC(=O)[C@H](CO)NC(=O)[C@H](CO)NC(=O)[C@H](Cc1c[nH]cn1)NC(=O)[C@H](Cc1c[nH]cn1)NC(=O)[C@H](CC(C)C)NC(=O)[C@H](Cc1ccccc1)NC(=O)[C@H](CC(N)=O)NC(=O)[C@H](C)NC(=O)[C@H](CC(C)C)NC(=O)[C@H](CCCNC(=N)N)NC(=O)[C@H](CCC(N)=O)NC(=O)[C@@H](NC(=O)[C@H](C)NC(=O)[C@@H]1CSSC[C@H](NC(=O)[C@H](Cc2c[nH]cn2)NC(=O)[C@H](Cc2c[nH]cn2)NC(=O)CC[C@H](NC(=O)CCCCCCCCCCCCCCCCC(=O)O)C(=O)O)C(=O)N[C@@H](CC(N)=O)C(=O)N[C@@H]([C@@H](C)O)C(=O)N[C@@H](C)C(=O)N[C@@H]([C@@H](C)O)C(=O)N1)[C@@H](C)O)C(=O)N[C@@H](CC(C)C)C(=O)N1CCC[C@H]1C(=O)N1CCC[C@H]1C(=O)N[C@H](C(=O)N[C@@H](CC(N)=O)C(=O)N[C@H](C(=O)NCC(=O)N[C@@H](CO)C(=O)N[C@@H](CC(N)=O)C(=O)N[C@H](C(=O)N[C@@H](Cc1ccc(O)cc1)C(N)=O)[C@@H](C)O)C(C)C)[C@@H](C)O [Example 31, N-alpha-[(S)-4-Carboxy-4-(17-carboxyheptadecanoylamino)butyryl]-His-[His1,His17]-pramlintide] ({C18 diacid-γGlu}-HHCNTATCATQRLANFLHHSSNNFGPILPPTNVGSNTY-NH2; disulfide 3-8)	effectively reducing food intake
